Broadly, the Emax is the maximal effect, on the per cent scale that the assay sets.

The record followed here is patent publication US8003660B2, “Modulators of muscarinic receptors” (Vertex Pharmaceuticals Incorporated, priority 2006, dated 2011).

A value given as a limit tells only on which side of the number the result lay.

What all share (format): cell-based
One assay has as its target T1, M2 muscarinic receptor (Homo sapiens, UniProt P08172).
T1 construct: expressed in transfected cells; host or cells: CHO (M2-CHO)
T1 sequence (P08172 1-466): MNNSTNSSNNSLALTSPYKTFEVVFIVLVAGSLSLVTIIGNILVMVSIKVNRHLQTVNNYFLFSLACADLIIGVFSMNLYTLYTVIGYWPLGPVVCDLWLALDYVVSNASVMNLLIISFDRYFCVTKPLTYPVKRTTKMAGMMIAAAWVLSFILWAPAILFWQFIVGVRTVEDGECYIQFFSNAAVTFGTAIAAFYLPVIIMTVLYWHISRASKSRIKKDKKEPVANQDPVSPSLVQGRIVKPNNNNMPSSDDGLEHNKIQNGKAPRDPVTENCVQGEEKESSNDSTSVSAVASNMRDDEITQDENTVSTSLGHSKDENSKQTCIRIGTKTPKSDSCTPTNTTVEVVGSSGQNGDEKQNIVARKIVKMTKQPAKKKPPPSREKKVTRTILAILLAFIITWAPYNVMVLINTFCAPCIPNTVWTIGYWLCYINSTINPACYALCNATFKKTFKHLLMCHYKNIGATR
Nature of the assay: Functional mobilization of intracellular calcium (FLIPR) in CHO cells expressing M2. The note with it: for M2 Activity: CHO cells expressing M2, FLIPR calcium assay; for Emax: CHO, 100% efficacy = maximum response obtained with the Carbachol control. The essentials:
(§1)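 Recombinant CHO cells loaded with Fluo-3 AM or Calcium 3 dye in pH 7.4 buffer containing 1 mM probenecid, with 0.5% final DMSO. For agonism, compound is added directly. For inhibition, it is preincubated 15 min, or co-applied, before carbachol at EC80. FLIPR fluorescence (ex 488, em 540 nm) is recorded for 60 s.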
A general note: Calcium flux is commonly read through the fluorescence of an indicator in the cells.

In a further assay the target is T2, M1 muscarinic receptor (Homo sapiens, UniProt P11229).
T2 construct: expressed in transfected cells; host or cells: CHO (M1-CHO)
T2 sequence (P11229 1-460): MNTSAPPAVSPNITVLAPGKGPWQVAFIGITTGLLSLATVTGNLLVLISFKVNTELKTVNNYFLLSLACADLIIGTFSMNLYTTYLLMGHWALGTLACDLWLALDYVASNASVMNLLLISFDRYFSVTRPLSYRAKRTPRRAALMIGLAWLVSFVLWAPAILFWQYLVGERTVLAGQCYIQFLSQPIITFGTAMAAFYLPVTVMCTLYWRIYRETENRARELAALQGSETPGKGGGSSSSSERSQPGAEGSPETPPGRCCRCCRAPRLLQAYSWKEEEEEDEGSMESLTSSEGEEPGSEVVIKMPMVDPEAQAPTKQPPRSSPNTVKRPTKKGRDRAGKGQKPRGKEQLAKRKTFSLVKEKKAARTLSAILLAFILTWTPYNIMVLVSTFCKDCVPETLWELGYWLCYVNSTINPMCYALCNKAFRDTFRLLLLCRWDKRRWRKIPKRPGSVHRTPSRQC
Nature of the assay: Functional mobilization of intracellular calcium (FLIPR) in CHO cells expressing M1. The settings on record: for M1 Activity: CHO cells expressing M1, FLIPR calcium assay; for Emax: CHO, 100% efficacy = maximum response obtained with the Carbachol control. In a few lines: as §1

The target of another assay is T3, M4 muscarinic receptor (Homo sapiens, UniProt P08173).
T3 construct: expressed in transfected cells; host or cells: CHO (M4-CHO)
T3 sequence (P08173 1-479): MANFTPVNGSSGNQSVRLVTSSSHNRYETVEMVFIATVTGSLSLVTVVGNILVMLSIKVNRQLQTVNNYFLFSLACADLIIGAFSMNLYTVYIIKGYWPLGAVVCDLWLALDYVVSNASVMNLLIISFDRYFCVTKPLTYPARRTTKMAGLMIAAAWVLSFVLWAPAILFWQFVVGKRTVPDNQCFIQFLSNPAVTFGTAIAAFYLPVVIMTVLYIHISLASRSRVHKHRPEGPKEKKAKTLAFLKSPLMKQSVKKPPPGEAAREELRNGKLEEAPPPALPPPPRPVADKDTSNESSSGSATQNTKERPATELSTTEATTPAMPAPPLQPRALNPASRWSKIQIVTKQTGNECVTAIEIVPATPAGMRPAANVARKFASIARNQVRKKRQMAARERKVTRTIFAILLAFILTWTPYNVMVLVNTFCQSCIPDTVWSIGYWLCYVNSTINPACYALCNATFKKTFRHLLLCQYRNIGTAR
Kind of assay: Functional mobilization of intracellular calcium (FLIPR) in CHO cells expressing M4. The note with it: for M4 Activity: CHO cells expressing M4, FLIPR calcium assay; for Emax: CHO, 100% efficacy = maximum response obtained with the Carbachol control. The essentials:
as §1

Another assay addresses T4, M3 muscarinic receptor (Homo sapiens, UniProt P20309).
T4 construct: expressed in transfected cells; host or cells: CHO (M3-CHO)
Kind of assay: Functional mobilization of intracellular calcium (FLIPR) in CHO cells expressing M3. The note with it: for M3 Activity: CHO cells expressing M3, FLIPR calcium assay; for Emax: CHO, 100% efficacy = maximum response obtained with the Carbachol control. In a few lines:
as §1

T4 sequence (P20309 whole entry): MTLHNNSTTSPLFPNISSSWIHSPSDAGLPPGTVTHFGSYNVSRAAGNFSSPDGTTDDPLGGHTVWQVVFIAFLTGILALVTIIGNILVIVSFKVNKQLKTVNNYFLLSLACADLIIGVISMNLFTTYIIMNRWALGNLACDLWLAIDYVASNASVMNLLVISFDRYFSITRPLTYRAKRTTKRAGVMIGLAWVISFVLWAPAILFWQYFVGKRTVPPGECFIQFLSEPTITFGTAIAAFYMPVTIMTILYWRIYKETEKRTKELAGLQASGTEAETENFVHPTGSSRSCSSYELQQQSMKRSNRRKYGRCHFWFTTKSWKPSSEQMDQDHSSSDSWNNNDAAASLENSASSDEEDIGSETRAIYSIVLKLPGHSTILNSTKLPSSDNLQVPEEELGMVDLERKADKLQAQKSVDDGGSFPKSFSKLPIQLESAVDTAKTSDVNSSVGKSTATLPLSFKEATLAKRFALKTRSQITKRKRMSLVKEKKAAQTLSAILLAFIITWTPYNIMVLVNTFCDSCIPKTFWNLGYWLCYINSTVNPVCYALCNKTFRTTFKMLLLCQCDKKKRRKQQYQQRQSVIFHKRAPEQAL

For `CC(C)CCN1CCC2(CC1)C[C@H](NC(=O)N1CCCC1)c1ccccc12` [compound 294], on M2 muscarinic receptor, the “M2 Activity” value was “+ (activity was measured to be greater than 5.0 μM)” and the Emax is under 25%. Also, at M1 muscarinic receptor, the “M1 Activity” value is on record as “+ (activity was measured to be greater than 5.0 μM)” and the maximal effect (Emax) is under 25%. On M4 muscarinic receptor, the “M4 Activity” value is reported as “+ (activity was measured to be greater than 5.0 μM)” and the Emax was under 25%. On M3 muscarinic receptor, the “M3 Activity” value is listed as “+ (activity was measured to be greater than 5.0 μM)” and the Emax was under 25%.

As for `CC(C)(C)OC(=O)N1CCC2(CC1)C[C@H](NC(=O)C1CCCC1)c1ccccc12` [compound 295], at M2 muscarinic receptor, the “M2 Activity” value is recorded as “+ (activity was measured to be greater than 5.0 μM)” and the maximal response (Emax) was under 25%. Further, on M1 muscarinic receptor, the “M1 Activity” value is on record as “+ (activity was measured to be greater than 5.0 μM)” and the Emax is under 25%. In addition, on M4 muscarinic receptor, the “M4 Activity” value is “+ (activity was measured to be greater than 5.0 μM)” and the Emax was under 25%. Besides, at M3 muscarinic receptor, the “M3 Activity” value was “+ (activity was measured to be greater than 5.0 μM)” and the Emax was under 25%.

With `CN(C)C(=O)N[C@H]1CC2(CCN(CCC(C)(C)C)CC2)c2ccccc21` [compound 297], on M2 muscarinic receptor, the “M2 Activity” value is given as “+ (activity was measured to be greater than 5.0 μM)” and the Emax was under 25%. Further, at M1 muscarinic receptor, the “M1 Activity” value is given as “+ (activity was measured to be greater than 5.0 μM)” and the Emax is under 25%. For the same compound, on M4 muscarinic receptor, the “M4 Activity” value is on record as “+ (activity was measured to be greater than 5.0 μM)” and the Emax is under 25%. On M3 muscarinic receptor, the “M3 Activity” value is given as “+ (activity was measured to be greater than 5.0 μM)” and the Emax was under 25%.

`CN(C)C(=O)N[C@H]1CC2(CCN(C(=O)OC(C)(C)C)CC2)c2ccccc21` [compound 298]: at M2 muscarinic receptor, the “M2 Activity” value is “+ (activity was measured to be greater than 5.0 μM)” and the Emax was under 25%. Also, on M1 muscarinic receptor, the “M1 Activity” value was “+ (activity was measured to be greater than 5.0 μM)” and the Emax was under 25%. Also, at M4 muscarinic receptor, the “M4 Activity” value is reported as “+ (activity was measured to be greater than 5.0 μM)” and the Emax was under 25%. On M3 muscarinic receptor, the “M3 Activity” value is given as “+ (activity was measured to be greater than 5.0 μM)” and the Emax is under 25%.

`CC(C)CCN1CCC2(CC1)C[C@H](NC(=O)C1CCCC1)c1ccccc12` [compound 299]: on M2 muscarinic receptor, the “M2 Activity” value is given as “+ (activity was measured to be greater than 5.0 μM)” and the maximal response (Emax) is under 25%. On M1 muscarinic receptor, the “M1 Activity” value is given as “+ (activity was measured to be greater than 5.0 μM)” and the Emax is under 25%. Moreover, on M4 muscarinic receptor, the “M4 Activity” value was “+ (activity was measured to be greater than 5.0 μM)” and the Emax is under 25%. At M3 muscarinic receptor, the “M3 Activity” value is given as “+ (activity was measured to be greater than 5.0 μM)” and the Emax is under 25%.

With `CC(C)(C)CCN1CCC2(CC1)C[C@H](NC(=O)C1CC1)c1ccccc12` [compound 300], at M2 muscarinic receptor, the “M2 Activity” value is given as “+ (activity was measured to be greater than 5.0 μM)” and the Emax is under 25%. Also, on M1 muscarinic receptor, the “M1 Activity” value is given as “+++ (activity was measured to be less than 2.0 μM)” and the Emax was in the range of 25 to 100%. For the same compound, at M4 muscarinic receptor, the “M4 Activity” value is on record as “+++ (activity was measured to be less than 2.0 μM)” and the Emax is under 25%. At M3 muscarinic receptor, the “M3 Activity” value is on record as “+ (activity was measured to be greater than 5.0 μM)” and the Emax is under 25%.

For the compound `C=CCCCN1CCC2(CC1)C[C@H](NC(=O)N1CCCC1)c1ccccc12` [compound 301], on M2 muscarinic receptor, the “M2 Activity” value is reported as “+ (activity was measured to be greater than 5.0 μM)” and the Emax was under 25%. Also, at M1 muscarinic receptor, the “M1 Activity” value is recorded as “+ (activity was measured to be greater than 5.0 μM)” and the Emax is under 25%. Further, on M4 muscarinic receptor, the “M4 Activity” value is given as “+ (activity was measured to be greater than 5.0 μM)” and the Emax is under 25%. Besides, at M3 muscarinic receptor, the “M3 Activity” value is on record as “+ (activity was measured to be greater than 5.0 μM)” and the Emax was under 25%.
